Article PMC4773988, “Structure-based Inhibitor Design for the Intrinsically Disordered Protein c-Myc” (Scientific Reports, 2016)

Tests used:
Solubility in water = assay type: physicochemical
[1] = cited from earlier work

Solubility in water (Solubility in water)	Molecule	Cell penetration [1]
less soluble in water	O=C(NC(NC(=S)Nc1ccc(I)cc1)C(Cl)(Cl)Cl)OCc1ccccc1 (stereo not drawn) [PKUMDL-YC-1203]	
less soluble in water	Cc1ccccc1C(=O)NC(NC(=S)Nc1cc(Cl)cc(Cl)c1Cl)C(Cl)(Cl)Cl (stereo not drawn) [PKUMDL-YC-1204]	
	JY-3-094	penetrates cells poorly
